In ChEMBL document CHEMBL1201862, “PubChem BioAssay data set” (2004):
Values belong to the compound of their own block, whether it stands above or below them. Active and inactive are the calls of the source.

Columns and labels:
Bcl-2-related protein A1 [1] = molecular target: T1, Bcl-2-related protein A1 (Mus musculus, UniProt Q07440); assay: displacement of Bid BH3 peptide from Bfl-1 – biochemical, fluorescence polarization, FITC-Bid, mouse, primary screen (AID 432)
T1 sequence (Q07440 whole entry): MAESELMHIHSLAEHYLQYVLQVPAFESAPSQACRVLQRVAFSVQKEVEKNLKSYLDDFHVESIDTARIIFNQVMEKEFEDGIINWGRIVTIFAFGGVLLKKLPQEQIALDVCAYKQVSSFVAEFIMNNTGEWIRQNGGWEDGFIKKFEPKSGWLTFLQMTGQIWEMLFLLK

Bcl-2-related protein A1 [2] = molecular target: T1, Bcl-2-related protein A1; assay: small-molecule antagonists of Bfl-1/BH3 interaction – biochemical, TR-FRET, mouse Bfl-1, confirmation (AID 621);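 note: TR-FRET binding of GST-Bfl-1 to FITC-labelled Bid peptide via terbium antibody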
Ephrin type-A receptor 4 = Ephrin type-A receptor 4 (Mus musculus, UniProt Q03137); assay: EphA4 ligand-binding antagonists – biochemical, colorimetric, mouse EphA4, primary screen (AID 689); type: functional
Cytochrome P450 2D6 = Cytochrome P450 2D6 (Homo sapiens, UniProt P10635);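 note: CYP2D6 member of a cytochrome P450 panel assay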
NADPH oxidase 1 [3] = molecular target: T2, NADPH oxidase 1 (Homo sapiens, UniProt Q9Y5S8); type: functional, cell-based
T2 sequence (Q9Y5S8 whole entry): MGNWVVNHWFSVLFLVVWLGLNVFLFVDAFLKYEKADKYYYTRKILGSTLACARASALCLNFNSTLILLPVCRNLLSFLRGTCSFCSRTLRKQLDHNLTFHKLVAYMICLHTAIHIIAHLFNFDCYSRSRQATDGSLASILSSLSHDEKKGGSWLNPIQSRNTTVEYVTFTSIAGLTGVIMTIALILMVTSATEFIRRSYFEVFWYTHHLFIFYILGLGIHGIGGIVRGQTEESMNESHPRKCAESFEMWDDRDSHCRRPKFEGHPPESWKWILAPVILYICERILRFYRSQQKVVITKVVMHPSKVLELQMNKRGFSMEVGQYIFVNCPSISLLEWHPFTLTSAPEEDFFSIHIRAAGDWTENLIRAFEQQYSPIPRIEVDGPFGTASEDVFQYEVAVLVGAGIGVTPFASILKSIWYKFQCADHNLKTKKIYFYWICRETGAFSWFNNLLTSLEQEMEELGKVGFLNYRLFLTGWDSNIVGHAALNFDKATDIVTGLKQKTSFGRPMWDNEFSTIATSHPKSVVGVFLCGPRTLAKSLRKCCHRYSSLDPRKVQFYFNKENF

NADPH oxidase 1 [4] = molecular target: T2, NADPH oxidase 1; assay: Late-stage luminescence-based cell-based dose response assay to identify inhibitors of NADPH oxidase 1 (NOX1): Purchased analogs 2.; type: functional
NADPH oxidase 1 [5] = molecular target: T2, NADPH oxidase 1; assay: Late-stage luminescence-based cell-based dose response assay to identify inhibitors of NADPH oxidase 1 (NOX1): Synthesized analogs 3.; type: functional
Aspartyl aminopeptidase = Aspartyl aminopeptidase (Plasmodium falciparum 3D7, UniProt Q8I2J3); assay: Counterscreen for inhibitors of M1 and M17 aminopeptidases: QFRET-based biochemical high throughput dose response assay for inhibitors of the Plasmodium falciparum M18 Aspartyl Aminopeptidase (PFM18AAP). [Related PubChem assays: 1619 (Screening assay (M17LAP inhibitors).), 1445 (Screening assay (M1AAP inhibitors).)]
Aminopeptidase N = molecular target: T3, Aminopeptidase N (Plasmodium falciparum FcB1/Columbia, UniProt O96935); assay: malaria alanyl aminopeptidase activity blockers – biochemical, fluorogenic H-Leu-NHMec substrate, 1536-well (AID 1445); set-up: species or system Plasmodium falciparum 3D7, 3D7
T3 sequence (O96935 whole entry): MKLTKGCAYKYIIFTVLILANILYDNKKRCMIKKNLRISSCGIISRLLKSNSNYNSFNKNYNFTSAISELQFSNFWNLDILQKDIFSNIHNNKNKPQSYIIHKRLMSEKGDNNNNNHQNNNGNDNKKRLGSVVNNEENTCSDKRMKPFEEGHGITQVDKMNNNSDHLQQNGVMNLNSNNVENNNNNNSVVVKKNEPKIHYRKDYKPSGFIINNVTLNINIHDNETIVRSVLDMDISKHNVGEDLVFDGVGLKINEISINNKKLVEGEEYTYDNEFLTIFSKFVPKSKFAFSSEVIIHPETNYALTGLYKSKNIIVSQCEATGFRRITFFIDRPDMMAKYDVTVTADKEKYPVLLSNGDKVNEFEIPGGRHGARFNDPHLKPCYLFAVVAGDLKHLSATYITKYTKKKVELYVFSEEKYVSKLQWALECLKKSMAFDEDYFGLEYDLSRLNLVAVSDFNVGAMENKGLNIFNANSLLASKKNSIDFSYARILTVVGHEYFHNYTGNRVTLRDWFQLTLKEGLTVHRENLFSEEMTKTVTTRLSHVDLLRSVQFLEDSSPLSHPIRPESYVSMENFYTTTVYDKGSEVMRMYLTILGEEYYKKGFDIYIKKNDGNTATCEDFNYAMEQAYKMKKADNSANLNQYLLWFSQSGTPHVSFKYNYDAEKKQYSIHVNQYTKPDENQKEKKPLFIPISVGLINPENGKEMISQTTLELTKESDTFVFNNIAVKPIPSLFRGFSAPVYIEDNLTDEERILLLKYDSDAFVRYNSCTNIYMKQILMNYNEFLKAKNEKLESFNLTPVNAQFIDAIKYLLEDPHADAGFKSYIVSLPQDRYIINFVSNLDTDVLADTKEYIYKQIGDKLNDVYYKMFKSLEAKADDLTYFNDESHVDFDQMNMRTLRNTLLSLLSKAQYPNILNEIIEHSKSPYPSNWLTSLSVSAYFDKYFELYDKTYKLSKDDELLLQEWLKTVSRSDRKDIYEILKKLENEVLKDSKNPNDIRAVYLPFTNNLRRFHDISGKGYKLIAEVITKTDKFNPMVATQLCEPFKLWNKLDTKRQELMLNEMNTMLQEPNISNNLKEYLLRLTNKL

Procathepsin L = Procathepsin L (Homo sapiens, UniProt P07711); assay: CTSL1 protease inhibition – biochemical, QFRET, 1536-well, counter-screen for M1/M17 aminopeptidase inhibitor project, dose response (AID 2214)
Vero = assay: inhibition of WNV-induced cytopathic effect – cell-based, CPE readout (AID 1621); type: functional; details: Chlorocebus sabaeus

Chain of Cytochrome P450 2D6 (P10635 whole entry): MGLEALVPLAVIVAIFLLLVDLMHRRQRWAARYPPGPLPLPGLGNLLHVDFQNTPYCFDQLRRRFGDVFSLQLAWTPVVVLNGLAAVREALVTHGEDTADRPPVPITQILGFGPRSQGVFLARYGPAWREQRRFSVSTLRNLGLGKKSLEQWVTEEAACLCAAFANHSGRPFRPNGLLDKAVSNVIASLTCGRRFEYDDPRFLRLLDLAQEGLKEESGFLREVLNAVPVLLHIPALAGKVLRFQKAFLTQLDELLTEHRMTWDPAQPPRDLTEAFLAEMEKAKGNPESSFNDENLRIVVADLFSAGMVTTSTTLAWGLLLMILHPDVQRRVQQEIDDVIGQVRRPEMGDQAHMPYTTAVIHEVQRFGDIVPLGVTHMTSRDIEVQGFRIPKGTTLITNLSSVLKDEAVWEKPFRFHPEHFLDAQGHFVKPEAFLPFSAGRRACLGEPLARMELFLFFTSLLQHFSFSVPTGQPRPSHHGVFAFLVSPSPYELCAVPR
Chain of Aspartyl aminopeptidase (Q8I2J3 whole entry): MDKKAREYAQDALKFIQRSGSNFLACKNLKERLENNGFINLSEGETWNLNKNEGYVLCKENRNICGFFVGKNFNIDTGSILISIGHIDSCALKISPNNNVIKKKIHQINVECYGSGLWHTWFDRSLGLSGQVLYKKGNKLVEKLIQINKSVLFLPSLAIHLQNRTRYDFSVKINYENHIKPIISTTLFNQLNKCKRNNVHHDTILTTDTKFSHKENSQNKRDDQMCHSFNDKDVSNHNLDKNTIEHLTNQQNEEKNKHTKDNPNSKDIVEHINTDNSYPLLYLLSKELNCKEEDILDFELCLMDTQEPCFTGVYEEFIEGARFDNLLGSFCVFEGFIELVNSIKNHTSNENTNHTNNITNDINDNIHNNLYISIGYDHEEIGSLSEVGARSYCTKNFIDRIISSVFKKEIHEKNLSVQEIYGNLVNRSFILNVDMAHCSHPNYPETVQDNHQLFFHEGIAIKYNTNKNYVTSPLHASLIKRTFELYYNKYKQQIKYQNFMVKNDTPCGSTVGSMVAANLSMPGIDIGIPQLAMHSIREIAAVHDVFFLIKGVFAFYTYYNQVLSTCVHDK
Chain of Procathepsin L (P07711 whole entry): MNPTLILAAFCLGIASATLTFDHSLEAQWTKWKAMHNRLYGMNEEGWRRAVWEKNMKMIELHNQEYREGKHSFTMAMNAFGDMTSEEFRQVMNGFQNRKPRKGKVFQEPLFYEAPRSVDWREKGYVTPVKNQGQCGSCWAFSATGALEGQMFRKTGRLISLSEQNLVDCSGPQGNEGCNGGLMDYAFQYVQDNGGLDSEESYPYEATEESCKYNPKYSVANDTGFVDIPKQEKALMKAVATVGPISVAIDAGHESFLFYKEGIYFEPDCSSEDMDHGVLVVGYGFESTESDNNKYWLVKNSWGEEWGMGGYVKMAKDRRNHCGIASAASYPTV
Chain of Ephrin type-A receptor 4 (Q03137 whole entry): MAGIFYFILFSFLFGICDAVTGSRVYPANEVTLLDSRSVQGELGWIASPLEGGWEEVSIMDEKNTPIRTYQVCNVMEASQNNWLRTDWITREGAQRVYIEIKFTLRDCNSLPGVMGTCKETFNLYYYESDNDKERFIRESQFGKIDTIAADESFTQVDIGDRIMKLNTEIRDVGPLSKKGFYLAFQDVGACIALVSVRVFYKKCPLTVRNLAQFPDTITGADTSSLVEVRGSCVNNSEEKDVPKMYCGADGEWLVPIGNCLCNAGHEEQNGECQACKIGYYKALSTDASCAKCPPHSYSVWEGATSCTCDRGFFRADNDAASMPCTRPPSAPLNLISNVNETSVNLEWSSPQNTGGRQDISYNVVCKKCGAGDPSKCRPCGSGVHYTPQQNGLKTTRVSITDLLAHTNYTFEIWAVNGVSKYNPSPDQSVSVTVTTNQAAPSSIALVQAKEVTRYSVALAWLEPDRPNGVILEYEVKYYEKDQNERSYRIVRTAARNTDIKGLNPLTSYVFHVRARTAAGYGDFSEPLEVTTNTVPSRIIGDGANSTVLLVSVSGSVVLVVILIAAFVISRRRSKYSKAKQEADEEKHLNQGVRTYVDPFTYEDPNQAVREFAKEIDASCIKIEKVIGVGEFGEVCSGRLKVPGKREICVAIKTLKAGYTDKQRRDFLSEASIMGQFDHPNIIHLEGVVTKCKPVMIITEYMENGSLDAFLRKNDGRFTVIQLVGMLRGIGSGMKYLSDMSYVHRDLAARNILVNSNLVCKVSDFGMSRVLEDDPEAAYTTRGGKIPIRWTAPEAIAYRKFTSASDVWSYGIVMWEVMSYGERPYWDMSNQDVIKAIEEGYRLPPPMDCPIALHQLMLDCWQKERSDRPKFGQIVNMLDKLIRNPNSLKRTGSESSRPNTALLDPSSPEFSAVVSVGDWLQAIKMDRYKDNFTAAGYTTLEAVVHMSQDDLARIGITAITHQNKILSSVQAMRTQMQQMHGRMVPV

IC50 (Bcl-2-related protein A1 [1]): 2.85 µM (active) | IC50 (Bcl-2-related protein A1 [2]): 2.66 µM (active) | IC50 (Ephrin type-A receptor 4): 4.1 µM (active) | AC50 (Cytochrome P450 2D6): 25.1 µM (inconclusive)
Structure (SMILES): CCSc1nnc(NC(=O)C(C(F)(F)F)C(F)(F)F)s1

IC50 (NADPH oxidase 1 [3]): > 17 µM (not active)
Structure (SMILES): Oc1ccccc1-c1nc(-c2ccccc2)c(-c2ccccc2)[nH]1

IC50 (NADPH oxidase 1 [4]): > 17 µM (not active)
Structure (SMILES): COc1ccc(/C=N/Nc2c(Cl)cc(Cl)cc2Cl)cc1

IC50 (NADPH oxidase 1 [5]): 0.201 µM (active)
Structure (SMILES): CN1c2ccc(N)cc2Sc2cc(C(=O)c3ccccc3)ccc21

IC50 (Aspartyl aminopeptidase): > 73.5 µM (not active) | IC50 (Aminopeptidase N): 4.6 µM (active) | IC50 (Procathepsin L): > 59.6 µM (not active)
Structure (SMILES): O=C(O)CCC(=O)N1N=C(c2c(-c3ccccc3)c3cc(Cl)ccc3[nH]c2=O)CC1c1ccccc1 (stereo unspecified)

Structure (SMILES): Cc1ccc2cc(C#N)c(N3CCCN(C(S)=NCCCN(C)C)CC3)nc2c1
IC50 (Vero): 24.4 µM (active)
